“Also recorded” adds a separate entry of the source.

A short description of this data set: solubility in solvents and buffers. The data set is classed as physicochemical.

In the case of `CCCCCCCCCCCC/C=C/CCCCC(=O)Oc1nc2ccccc2nc1OP(O)(=S)OCCCCCCCCCCCCCCCC` (stereo not shown) [streptolipin, Nonadeca-6-enoic acid-3-(hexadecyloxy-hydroxy-thiophosphoryloxy)-quinoxalin-2-yl ester], the Solubility response entry runs as follows: (5% acetic acid) “Insoluble”; (5% sodium bicarbonate) “Insoluble”; (5% sodium hydroxide) “Insoluble”; (Acetone) “Soluble”; (Acetonitrile) “slightly soluble; also recorded: Sparingly soluble”; (Chloroform) “Soluble”. Further, the Solubility response result by setting is: (Diethyl ether) “slightly soluble; also recorded: Sparingly soluble”; (Dimethyl sulphoxide) “Soluble”; (Ethanol) “Sparingly soluble”; (Ethyl acetate) “slightly soluble; also recorded: Sparingly soluble”; (Hexane) “Sparingly soluble”; (Methanol) “slightly soluble; also recorded: Sparingly soluble”. Further, the Solubility response result runs as follows: (Phosphate buffer (pH 7.4-8.0)) “Insoluble”; (acetate buffer (pH 5.0, 6.0)) “Insoluble”; (tris buffer (pH 8.0, 9.0)) “Insoluble”; (water) “Insoluble”.
